Results published in ChEMBL document CHEMBL1156538, “Microwave-assisted solid phase synthesis, PEGylation, and biological activity studies of glucagon-like peptide-1(7-36) amide” (2008).

Key:
Assay type in all cases: functional
Mus musculus [1] = experiment: Decrease in blood glucose level in Kunming mouse at 25 nmol/kg, ip administered simultaneously with glucose at 18 mmol/kg, ip after 15 mins
Mus musculus [2] = experiment: Decrease in blood glucose level in Kunming mouse at 25 nmol/kg, ip administered 90 mins before 18 mmol/kg, ip glucose injection after 45 mins
Mus musculus [3] = experiment: Decrease in blood glucose level in Kunming mouse at 25 nmol/kg, ip administered 90 mins before 18 mmol/kg, ip glucose injection after 60 mins
Mus musculus [4] = experiment: Decrease in blood glucose level in Kunming mouse at 25 nmol/kg, ip administered 90 mins before 18 mmol/kg, ip glucose injection after 30 mins
Mus musculus [5] = experiment: Decrease in blood glucose level in Kunming mouse at 25 nmol/kg, ip administered simultaneously with glucose at 18 mmol/kg, ip after 45 mins
Mus musculus [6] = experiment: Decrease in blood glucose level in Kunming mouse at 25 nmol/kg, ip administered simultaneously with glucose at 18 mmol/kg, ip after 30 mins
Mus musculus [7] = experiment: Decrease in blood glucose level in Kunming mouse at 25 nmol/kg, ip administered simultaneously with glucose at 18 mmol/kg, ip after 60 mins
Mus musculus [8] = experiment: Decrease in blood glucose level in Kunming mouse at 25 nmol/kg, ip administered 90 mins before 18 mmol/kg, ip glucose injection after 15 mins

Q: Which Activity (Mus musculus [1]) does the source give for `CC[C@H](C)[C@H](NC(=O)[C@H](Cc1ccccc1)NC(=O)[C@H](CCC(=O)O)NC(=O)[C@H](CCCCN)NC(=O)[C@H](C)NC(=O)[C@H](C)NC(=O)[C@H](CCC(N)=O)NC(=O)CNC(=O)[C@H](CCC(=O)O)NC(=O)[C@H](CC(C)C)NC(=O)[C@H](Cc1ccc(O)cc1)NC(=O)[C@H](CO)NC(=O)[C@H](CO)NC(=O)[C@@H](NC(=O)[C@H](CC(=O)O)NC(=O)[C@H](CO)NC(=O)[C@@H](NC(=O)[C@H](Cc1ccccc1)NC(=O)[C@@H](NC(=O)CNC(=O)[C@H](CCC(=O)O)NC(=O)CNC(=O)[C@@H](N)Cc1cnc[nH]1)[C@@H](C)O)[C@@H](C)O)C(C)C)C(=O)N[C@@H](C)C(=O)N[C@@H](Cc1c[nH]c2ccccc12)C(=O)N[C@@H](CC(C)C)C(=O)N[C@H](C(=O)N[C@@H](CCCCN)C(=O)NCC(=O)N[C@@H](CCCNC(=N)N)C(N)=O)C(C)C` here?
A: The Activity was 12.98 mmol/L.

Q: What about the Activity (Mus musculus [2]) of the same compound?
A: Its Activity is 10.23 mmol/L.

Q: What about the Activity (Mus musculus [3]) of the same compound?
A: The Activity was 9.18 mmol/L.

Q: What about the Activity (Mus musculus [4]) of the same compound?
A: Its Activity is 14.67 mmol/L.

Q: And the Activity (Mus musculus [5])?
A: Its Activity is 7.7 mmol/L.

Q: And the Activity (Mus musculus [6])?
A: Its Activity is 8.27 mmol/L.

Q: What about the Activity (Mus musculus [7]) of the same compound?
A: Its Activity is 7.18 mmol/L.

Q: What about the Activity (Mus musculus [8]) of the same compound?
A: Its Activity is 17.92 mmol/L.
